Experimental data: paper PMC10108742, “Design, synthesis and evaluation of OA-tacrine hybrids as cholinesterase inhibitors with low neurotoxicity and hepatotoxicity against Alzheimer’s disease” (Journal of Enzyme Inhibition and Medicinal Chemistry, 2023)
Like-named read-outs stand apart in the source and are kept apart here.

Assays:
hAChE = molecular target: T1, hAChE (Homo sapiens, UniProt P22303); experiment: biochemical
T1 construct: purchased Sigma Aldrich
Procedure: (§1) The capacity of all the target compounds to inhibit hAChE and hBuChE activities were assessed by Ellman’s method. […] Results are expressed as the mean ± SD of at least three different experiments performed in triplicate.
Buffer was freshly prepared and stored in the refrigerator. […] All solutions were stored in Eppendorf caps in the refrigerator or freezer, if necessary. […] The final concentrations for the enzymatic assay were yielded by diluting the stock solution with bi-distilled water.
(§2) A mixture of the DTNB solution (160 µL), enzyme solution (50 µL) and compounds solutions (10 µL, 3 different concentrations and once blank water) was prepared and incubated at 37 °C for 10 min. The substrate (30 µL) was added to start the enzymatic reaction. […] All measurements were performed as triplicates.

hBuChE = molecular target: T2, hBuChE (Homo sapiens, UniProt P06276); experiment: hBuChE inhibition, Ellman's method; format: biochemical; details: hBuChE from human serum, mean ± SD of three experiments
T2 construct: purchased Sigma Aldrich
T2 sequence (P06276 29-602): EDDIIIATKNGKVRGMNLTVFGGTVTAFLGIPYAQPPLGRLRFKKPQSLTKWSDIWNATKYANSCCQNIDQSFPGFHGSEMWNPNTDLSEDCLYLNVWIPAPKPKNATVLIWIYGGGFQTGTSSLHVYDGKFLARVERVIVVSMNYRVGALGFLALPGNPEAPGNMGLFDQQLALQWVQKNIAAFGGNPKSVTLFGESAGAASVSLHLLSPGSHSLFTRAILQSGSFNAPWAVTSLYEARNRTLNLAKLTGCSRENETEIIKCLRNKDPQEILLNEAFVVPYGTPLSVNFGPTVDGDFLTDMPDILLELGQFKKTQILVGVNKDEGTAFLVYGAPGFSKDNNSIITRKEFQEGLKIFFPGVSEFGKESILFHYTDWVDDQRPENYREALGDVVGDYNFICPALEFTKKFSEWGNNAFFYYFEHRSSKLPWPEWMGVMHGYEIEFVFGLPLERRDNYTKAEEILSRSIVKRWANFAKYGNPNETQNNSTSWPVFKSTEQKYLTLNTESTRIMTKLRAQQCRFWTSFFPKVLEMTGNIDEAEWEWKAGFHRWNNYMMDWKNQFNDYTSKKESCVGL
Procedure: as §1, with “hAChE, hBuChE, Acetylcholinesterase Activity Assay Kit and Butyrylcholinesterase Activity Assay Kit were purchased from Sigma Aldrich. […] The” for “The”
Preparation of 50 mM Tris–HCl buffer solutions: 5 ml Tris solution (1 M, Ph 8.5, Beyotime Biotechnology) was dissolved in distilled water (95 ml) and adjusted with HCl to a pH of 8.0 ± 0.1. Buffer was freshly prepared and stored in the refrigerator. […] All solutions were stored in Eppendorf caps in the refrigerator or freezer, if necessary. […] The final concentrations for the enzymatic assay were yielded by diluting the stock solution with bi-distilled water.
as §2

SH-SY5Y cells = experiment: Cell viability in SH-SY5Y cells, CCK-8 assay; details: 24 h
Procedure: (§3) Figure 5. Effects of various concentrations of compounds on cell viability in SH-SY5Y cells and HepG2 cells after treatment for 24 h. Cell viability was measured by CCK-8 assay. Data were shown as mean ± SD of three independent experiments.
(§4) HepG2 and SH-SY5Y cells were obtained from the Cell Bank of Shanghai Institute of Biochemistry and Cell Biology, Chinese Academy of Sciences (Shanghai, China). HepG2 and SH-SY5Y cells were cultured in MEM or MEM/F12 supplemented with 10% FBS, 100 units mL^−1 penicillin/streptomycin and maintained in a humidified atmosphere of 5% CO2 at 37 °C. Initially, 8000 cells per well were seeded in 96-well plates for HepG2 or SH-SY5Y cells, then treated with vehicle alone or tested compounds for 24 h. Then 10 μL CCK8 purchased from CELLCOOK was added to each well and further incubated for another 3 h. The absorbance was measured using a microplate reader (450 nm).

HepG2 cells [1] = experiment: Cell viability in HepG2 cells, CCK-8 assay; details: 24 h
Procedure: as §3, §4

HepG2 cells [2] = experiment: Apoptosis in HepG2 cells, AnnexinV/PI double staining, flow cytometry; details: 50 μM, 24 h, control group 4.34%
Procedure: Figure 6. […] Apoptotic cells detected by flow cytometry after AnnexinV and PI double staining.
Annexin V-FITC and propidium iodide were used to evaluate apoptotic cells by flow cytometry. Cells were treated with different concentrations of tested compounds for 24 h. Then the cells were washed twice with phosphate-buffered saline (PBS) (centrifugation at 2000 rpm, 5 min). The collected cells were then resuspended in 500 μL of binding buffer. After stained with 5 μL AnnexinV-FITC and 5 μL propidium iodide at room temperature for 15 min. Cells were then analysed by BD Accuri C6 flow cytometer with cell quest software (Becton & Dickinson Company, Franklin Lakes, NJ). Cells undergoing apoptosis are both Annexin V positive and PI negative.

HepG2 cells [3] = experiment: Intracellular ROS production in HepG2 cells, DCFH-DA, flow cytometry; details: 50 μM, compared with control / tacrine group
Procedure: The percentage of cells for ROS was stained with DCFH-DA and the stained cells were immediately determined by flow cytometry.
The level of intracellular ROS was measured by using the ROS-sensitive dye, 2′,7′-dichloro-fluorescein diacetate (DCFH-DA), as a probe. In brief, cells were seeded in six-well plates at 2.0 × 10^5 cells/well, treating with different tested compounds for 24 h, and then washed three times and incubated with final concentration of 10 μM DCFH-DA for 30 min at 37 °C in the dark. After incubation, cells were washed three times and harvested in free-serum medium. […] Data were processed by using cell quest software (Becton & Dickinson Company, Franklin Lakes, NJ).

[4] = hAChE from human erythrocytes, mean ± SD of three experiments

T1 sequence (P22303 32-614): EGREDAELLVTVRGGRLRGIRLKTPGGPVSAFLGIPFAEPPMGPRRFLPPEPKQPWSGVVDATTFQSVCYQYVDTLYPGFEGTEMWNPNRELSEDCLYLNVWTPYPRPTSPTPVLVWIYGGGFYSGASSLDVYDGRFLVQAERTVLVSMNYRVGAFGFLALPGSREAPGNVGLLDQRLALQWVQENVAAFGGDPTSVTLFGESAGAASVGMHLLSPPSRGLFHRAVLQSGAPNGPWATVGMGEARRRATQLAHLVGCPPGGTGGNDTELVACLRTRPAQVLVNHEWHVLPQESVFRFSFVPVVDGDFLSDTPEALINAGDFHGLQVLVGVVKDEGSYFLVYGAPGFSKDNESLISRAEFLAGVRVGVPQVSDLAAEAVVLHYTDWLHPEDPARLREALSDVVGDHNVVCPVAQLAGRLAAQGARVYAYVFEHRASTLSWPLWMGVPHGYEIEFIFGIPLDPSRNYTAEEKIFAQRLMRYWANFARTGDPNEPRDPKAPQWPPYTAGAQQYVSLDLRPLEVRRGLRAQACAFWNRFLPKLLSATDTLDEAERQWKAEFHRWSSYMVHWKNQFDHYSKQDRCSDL

| SMILES | IC50 (hAChE) [µM] | IC50 (hBuChE; read-out: IC50 hBuChE) [µM] | IC50 (hBuChE; IC50 hBuChE) [µM] | SI (selectivity index, hBuChE/hAChE) (hAChE) | other results |
| --- | --- | --- | --- | --- | --- |
| CC1(C)CC[C@]2(C(=O)NCCCCCCNc3c4c(nc5c(Br)cccc35)CCCC4)CC[C@]3(C)C(=CCC4[C@@]5(C)CC[C@H](O)C(C)(C)C5CC[C@]43C)C2C1 (stereo partly drawn) [Compound E5, N-(6-((5-bromo-1,2,3,4-tetrahydroacridin-9-yl)amino)hexyl)-olean-12-en-28-amide] | > 10 | > 10 | – | – | – |
| CC1(C)CC[C@]2(C(=O)NCCCNc3c4c(nc5cc(F)ccc35)CCCC4)CC[C@]3(C)C(=CCC4[C@@]5(C)CC[C@H](O)C(C)(C)C5CC[C@]43C)C2C1 (stereo partly drawn) [Compound F2] | > 10 | – | > 10 | – | – |
| CC1(C)CC[C@]2(C(=O)NCCCCCNc3c4c(nc5c(F)cccc35)CCCC4)CC[C@]3(C)C(=CCC4[C@@]5(C)CC[C@H](O)C(C)(C)C5CC[C@]43C)C2C1 (stereo partly drawn) [Compound G4, N-(5-((5-fluoro-1,2,3,4-tetrahydroacridin-9-yl)amino)pentyl)-olean-12-en-28-amide] | > 10 | 1.6 ± 0.0904 | – | <0.16 | – |
| CC1(C)CC[C@]2(C(=O)NCCNc3c4c(nc5cc(Br)ccc35)CCCC4)CC[C@]3(C)C(=CCC4[C@@]5(C)CC[C@H](O)C(C)(C)C5CC[C@]43C)C2C1 (stereo partly drawn) [Compound D1, N-(2-((6-bromo-1,2,3,4-tetrahydroacridin-9-yl)amino)ethyl)-olean-12-en-28-amide] | > 10 | > 10 | – | – | – |
| CC1(C)CC[C@]2(C(=O)NCCCCCCNc3c4c(nc5cc(Cl)ccc35)CCCC4)CC[C@]3(C)C(=CCC4[C@@]5(C)CC[C@H](O)C(C)(C)C5CC[C@]43C)C2C1 (stereo partly drawn) [Compound B4] | 0.0144 ± 0.00189 | – | > 10 | >695.89 | effect on SH-SY5Y cell viability (SH-SY5Y cells; 50 μM): little effect; HepG2 cell viability rate (HepG2 cells [1]; 50 μM): close to that of the control group; percentage of apoptotic cells (HepG2 cells [2]): 7.69%; intracellular ROS levels (in words) (HepG2 cells [3]): significantly lower than that in the tacrine group |
| CC1(C)CC[C@]2(C(=O)NCCCCNc3c4c(nc5cc(F)ccc35)CCCC4)CC[C@]3(C)C(=CCC4[C@@]5(C)CC[C@H](O)C(C)(C)C5CC[C@]43C)C2C1 (stereo partly drawn) [Compound F3, N-(4-((6-fluoro-1,2,3,4-tetrahydroacridin-9-yl)amino)butyl)-olean-12-en-28-amide] | – | – | > 10 | – | IC50 (hAChE; [4]): > 10 µM |
| CC1(C)CC[C@]2(C(=O)NCCNc3c4c(nc5c(Cl)cccc35)CCCC4)CC[C@]3(C)C(=CCC4[C@@]5(C)CC[C@H](O)C(C)(C)C5CC[C@]43C)C2C1 (stereo partly drawn) [Compound C1, N-(2-((5-chloro-1,2,3,4-tetrahydroacridin-9-yl)amino)ethyl)-olean-12-en-28-amide] | > 10 | > 10 | – | – | – |
| CC1(C)CC[C@]2(C(=O)NCCCNc3c4c(nc5c(Cl)cccc35)CCCC4)CC[C@]3(C)C(=CCC4[C@@]5(C)CC[C@H](O)C(C)(C)C5CC[C@]43C)C2C1 (stereo partly drawn) [Compound C2, N-(3-((5-chloro-1,2,3,4-tetrahydroacridin-9-yl)amino)propyl)-olean-12-en-28-amide] | > 10 | > 10 | – | – | – |
| CC1(C)CC[C@]2(C(=O)NCCCNc3c4c(nc5c(Br)cccc35)CCCC4)CC[C@]3(C)C(=CCC4[C@@]5(C)CC[C@H](O)C(C)(C)C5CC[C@]43C)C2C1 (stereo partly drawn) [Compound E2] | – | – | > 10 | – | IC50 (hAChE; [4]): > 10 µM |
| Nc1c2c(nc3ccccc13)CCCC2 [Tacrine] | – | – | – | – | cytotoxicity to SH-SY5Y cells (cell viability) (SH-SY5Y cells; 50–100 μM): cytotoxic; cytotoxicity to HepG2 cells (cell viability) (HepG2 cells [1]; 50–100 μM): cytotoxic; percentage of apoptotic cells (HepG2 cells [2]): 18.90%; intracellular ROS levels (in words) (HepG2 cells [3]): significant hepatotoxicity |
| CC1(C)CC[C@]2(C(=O)NCCCCCCNc3c4c(nc5c(F)cccc35)CCCC4)CC[C@]3(C)C(=CCC4[C@@]5(C)CC[C@H](O)C(C)(C)C5CC[C@]43C)C2C1 (stereo partly drawn) [Compound G5, N-(6-((5-fluoro-1,2,3,4-tetrahydroacridin-9-yl)amino)hexyl)-olean-12-en-28-amide] | > 10 | 3.81 ± 1.04 | – | <0.38 | – |
| CC1(C)CC[C@]2(C(=O)NCCCNc3c4c(nc5c(F)cccc35)CCCC4)CC[C@]3(C)C(=CCC4[C@@]5(C)CC[C@H](O)C(C)(C)C5CC[C@]43C)C2C1 (stereo partly drawn) [Compound G2] | > 10 | – | 0.921 ± 0.0587 | <0.09 | – |
| CC1(C)CC[C@]2(C(=O)NCCNc3c4c(nc5cc(F)ccc35)CCCC4)CC[C@]3(C)C(=CCC4[C@@]5(C)CC[C@H](O)C(C)(C)C5CC[C@]43C)C2C1 (stereo partly drawn) [Compound F1, N-(2-((6-fluoro-1,2,3,4-tetrahydroacridin-9-yl)amino)ethyl)-olean-12-en-28-amide] | > 10 | > 10 | – | – | – |
| CC1(C)CC[C@]2(C(=O)NCCCCCNc3c4c(nc5ccccc35)CCCC4)CC[C@]3(C)C(=CCC4[C@@]5(C)CC[C@H](O)C(C)(C)C5CC[C@]43C)C2C1 (stereo partly drawn) [Compound A3] | 0.775 ± 0.28 | 2.78 ± 0.0607 | – | 3.59 | – |
